# Measurements taken from PMC7438494 (Communications Biology, 2020).
# Where “and” joins values, the source holds several entries; their conditions need not be identical. Equal values may be shown once. Read-outs that look alike come from different tables or passages of the source.
# Target: human ATP synthase (Homo sapiens, UniProt P00846+P05496)
# Test: biochemical
# Assay type: biochemical
# [1] = BDQ 0.65 uM, […], frozen human mito, BDQ in DMSO
# [2] = BDQ 0.65 uM, cyanide sensitive, 60 min, frozen human mito, BDQ in DMSO
# [3] = BDQ 1 uM, […], frozen human mito, BDQ in DMSO
# [4] = BDQ 1 uM, cyanide sensitive, human
# [5] = BDQ 2 uM, […], frozen human mito, BDQ in DMSO
# [6] = BDQ 5 uM, […], frozen human mito, BDQ in DMSO
# [7] = BDQ 5 uM, cyanide sensitive, human
# [8] = BDQ 10 uM, […], frozen human mito, BDQ in DMSO
# [9] = BDQ 10 uM, cyanide sensitive, human
# [10] = Human Mito, 1st exp (12-14-18), Bedaquiline 0.05 μM, 60 min
# [11] = Human Mito, 2nd exp (12-17-18), Bedaquiline 0.05 μM, 60 min
smiles,measurement,setting,value
"COc1nc2ccc(Br)cc2cc1[C@@H](c1ccccc1)[C@@](O)(CCN(C)C)c1cccc2ccccc12 [BDQ, Bedaquiline]",cyanide sensitive % inhibition,"BDQ 0.5 uM, cyanide sensitive, human",66.6% and 70.0% and 42.0% and 48.8% and 35.1%
same,% activity,[1],30.2506%
same,% inhibition,[1],69.7494%
same,"ATP produced, nmol/min/mg",[1],2.55 nmol/min/mg
same,"ATP produced, pmol/min/mg",[1],2547.17 pmol/min/mg
same,activity at 0.65 µM,"BDQ 0.65 uM, […], frozen human mito, BDQ in DMSO, read-out: % activity",30.3%
same,activity at 0.65 µM,"BDQ 0.65 uM, […], frozen human mito, BDQ in DMSO, read-out: % activity, cyanide sensitive",18.5%
same,inhibition at 0.65 µM,"BDQ 0.65 uM, […], frozen human mito, BDQ in DMSO, read-out: % inhibition",69.7%
same,inhibition at 0.65 µM,"BDQ 0.65 uM, […], frozen human mito, BDQ in DMSO, read-out: % inhibition, cyanide sensitive",81.5%
same,"cyanide sensitive ATP produced, nmol/min/mg",[2],1.33 nmol/min/mg
same,"cyanide sensitive ATP produced, pmol/min/mg",[2],1329.08 pmol/min/mg
same,cyanide sensitive % inhibition,"BDQ 0.85 uM, cyanide sensitive, human",67.5% and 100.0% and 66.9%
same,% activity,[3],17.1322%
same,"% activity, cyanide sensitive",[3],3.117%
same,% inhibition,[3],82.8678%
same,"ATP produced, nmol/min/mg",[3],1.44 nmol/min/mg
same,"ATP produced, pmol/min/mg",[3],1442.57 pmol/min/mg
same,activity at 1 µM,"BDQ 1 uM, […], frozen human mito, BDQ in DMSO, read-out: % activity",17.1%
same,inhibition at 1 µM,"BDQ 1 uM, […], frozen human mito, BDQ in DMSO, read-out: % inhibition",82.9%
same,inhibition at 1 µM,"BDQ 1 uM, […], frozen human mito, BDQ in DMSO, read-out: % inhibition, cyanide sensitive",96.9%
same,"cyanide sensitive ATP produced, pmol/min/mg","BDQ 1 uM, cyanide sensitive, 60 min, frozen human mito, BDQ in DMSO",224.48 pmol/min/mg
same,cyanide sensitive % activity,[4],-0.8% and 8.7% and -0.171%
same,cyanide sensitive % inhibition,[4],91.3% and 100.2%
same,inhibition at 1 µM,"BDQ 1 uM, cyanide sensitive, human, read-out: cyanide sensitive % inhibition",101%
same,% activity,[5],12.0221%
same,% inhibition,[5],87.9779%
same,"ATP produced, nmol/min/mg",[5],1.01 nmol/min/mg
same,"ATP produced, pmol/min/mg",[5],1012.29 pmol/min/mg
same,activity at 2 µM,"BDQ 2 uM, […], frozen human mito, BDQ in DMSO, read-out: % activity",12%
same,activity at 2 µM,"BDQ 2 uM, […], frozen human mito, BDQ in DMSO, read-out: % activity, cyanide sensitive",-2.86%
same,inhibition at 2 µM,"BDQ 2 uM, […], frozen human mito, BDQ in DMSO, read-out: % inhibition",88%
same,inhibition at 2 µM,"BDQ 2 uM, […], frozen human mito, BDQ in DMSO, read-out: % inhibition, cyanide sensitive",103%
same,"cyanide sensitive ATP produced, pmol/min/mg","BDQ 2 uM, cyanide sensitive, 60 min, frozen human mito, BDQ in DMSO",-205.80 pmol/min/mg
same,cyanide sensitive % inhibition,"BDQ 2 uM, cyanide sensitive, human",98.3% and 117.8% and 98.9% and 97.2% and 102.7%
same,% activity,[6],17.1136%
same,"% activity, cyanide sensitive",[6],3.095%
same,% inhibition,[6],82.8864%
same,"ATP produced, nmol/min/mg",[6],1.44 nmol/min/mg
same,"ATP produced, pmol/min/mg",[6],1441.00 pmol/min/mg
same,activity at 5 µM,"BDQ 5 uM, […], frozen human mito, BDQ in DMSO, read-out: % activity",17.1%
same,inhibition at 5 µM,"BDQ 5 uM, […], frozen human mito, BDQ in DMSO, read-out: % inhibition",82.9%
same,inhibition at 5 µM,"BDQ 5 uM, […], frozen human mito, BDQ in DMSO, read-out: % inhibition, cyanide sensitive",96.9%
same,"cyanide sensitive ATP produced, pmol/min/mg","BDQ 5 uM, cyanide sensitive, 60 min, frozen human mito, BDQ in DMSO",222.91 pmol/min/mg
same,cyanide sensitive % activity,[7],-7.0% and -10.1% and -4.1% and -2.6% and -5.6%
same,cyanide sensitive % inhibition,[7],107.0% and 110.1% and 102.6% and 105.6%
same,inhibition at 5 µM,"BDQ 5 uM, cyanide sensitive, human, read-out: cyanide sensitive % inhibition",104%
same,% activity,[8],14.9815%
same,"% activity, cyanide sensitive",[8],0.6024%
same,% inhibition,[8],85.0185%
same,"ATP produced, nmol/min/mg",[8],1.26 nmol/min/mg
same,"ATP produced, pmol/min/mg",[8],1261.47 pmol/min/mg
same,activity at 10 µM,"BDQ 10 uM, […], frozen human mito, BDQ in DMSO, read-out: % activity",15%
same,inhibition at 10 µM,"BDQ 10 uM, […], frozen human mito, BDQ in DMSO, read-out: % inhibition",85%
same,inhibition at 10 µM,"BDQ 10 uM, […], frozen human mito, BDQ in DMSO, read-out: % inhibition, cyanide sensitive",99.4%
same,"cyanide sensitive ATP produced, pmol/min/mg","BDQ 10 uM, cyanide sensitive, 60 min, frozen human mito, BDQ in DMSO",43.39 pmol/min/mg
same,cyanide sensitive % activity,[9],-1.4%
same,cyanide sensitive % inhibition,[9],101.4%
same,inhibition at 10 µM,"BDQ 10 uM, cyanide sensitive, human, read-out: cyanide sensitive % inhibition",102%
same,Cyanide sensitive,[10],4.658 nmol/min/mg
same,activity at 0.05 µM,[10],64.1%
same,Cyanide sensitive,"Human Mito, 1st exp (12-14-18), Bedaquiline 0.1 μM, 60 min",6.127 nmol/min/mg
same,activity at 0.1 µM,"Human Mito, 1st exp (12-14-18), Bedaquiline 0.1 μM, 60 min, read-out: % activity",84.3%
same,Cyanide sensitive,"Human Mito, 1st exp (12-14-18), Bedaquiline 0.2 μM, 60 min",4.027 nmol/min/mg
same,activity at 0.2 µM,"Human Mito, 1st exp (12-14-18), Bedaquiline 0.2 μM, 60 min, read-out: % activity",55.4%
same,Cyanide sensitive,"Human Mito, 1st exp (12-14-18), Bedaquiline 0.5 μM, 60 min",2.18 nmol/min/mg
same,activity at 0.5 µM,"Human Mito, 1st exp (12-14-18), Bedaquiline 0.5 μM, 60 min, read-out: % activity",30%
same,Cyanide sensitive,"Human Mito, 1st exp (12-14-18), Bedaquiline 0.65 μM, 60 min",-0.9359 nmol/min/mg
same,activity at 0.65 µM,"Human Mito, 1st exp (12-14-18), Bedaquiline 0.65 μM, 60 min, read-out: % activity",-12.9%
same,Cyanide sensitive,"Human Mito, 1st exp (12-14-18), Bedaquiline 0.85 μM, 60 min",-0.002656 nmol/min/mg
same,activity at 0.85 µM,"Human Mito, 1st exp (12-14-18), Bedaquiline 0.85 μM, 60 min, read-out: % activity",-0.0365%
same,Cyanide sensitive,"Human Mito, 1st exp (12-14-18), Bedaquiline 2 μM, 60 min",-1.2927 nmol/min/mg
same,activity at 2 µM,"Human Mito, 1st exp (12-14-18), Bedaquiline 2 μM, 60 min, read-out: % activity",-17.8%
same,Cyanide sensitive,"Human Mito, 1st exp (12-14-18), Bedaquiline 5 μM, 60 min",-0.5097 nmol/min/mg
same,activity at 5 µM,"Human Mito, 1st exp (12-14-18), Bedaquiline 5 μM, 60 min, read-out: % activity",-7.01%
same,activity at 0.1 µM,"Human Mito, 1st exp (18_12_14), BDQ 0.1 uM, read-out: Cyanide sensitive % activity",73.2%
same,activity at 0.2 µM,"Human Mito, 1st exp (18_12_14), BDQ 0.2 uM, read-out: Cyanide sensitive % activity",57.7%
same,activity at 0.5 µM,"Human Mito, 1st exp (18_12_14), BDQ 0.5 uM, read-out: Cyanide sensitive % activity",44%
same,activity at 0.85 µM,"Human Mito, 1st exp (18_12_14), BDQ 0.85 uM, read-out: Cyanide sensitive % activity",16.6%
same,activity at 2 µM,"Human Mito, 1st exp (18_12_14), BDQ 2 uM, read-out: Cyanide sensitive % activity",-8.33%
same,Cyanide sensitive,[11],3.788 nmol/min/mg
same,activity at 0.05 µM,[11],43.8%
same,Cyanide sensitive,"Human Mito, 2nd exp (12-17-18), Bedaquiline 0.1 μM, 60 min",5.369 nmol/min/mg
same,activity at 0.1 µM,"Human Mito, 2nd exp (12-17-18), Bedaquiline 0.1 μM, 60 min, read-out: % activity",62%
